Experimental data published in US12171229B2, “Heteroaryl-triazole and heteroaryl-tetrazole compounds as pesticides” (BAYER AKTIENGESELLSCHAFT, priority 2018, dated 2024).

Experiments:
Type in all cases: in vivo
Ctenocephalides felis [1] = experiment: Ctenocephalides felis oral test; conditions: 48 h, 100 ppm in cattle blood, after 2 days, adult unfed cat fleas
Method in brief: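 About 20 unfed adult cat fleas feed through parafilm on cattle blood dosed with compound from a DMSO stock. Blood chamber at 37° C, fleas at room temperature. Percent mortality scored after 2 days.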

[2] = test system: cattle ticks (Boophilus microplus) strane Parhurst, SP-resistant; experiment: Boophilus microplus dip test; conditions: Rhipicephalus microplus, 168 h, engorged adult female cattle ticks, egg deposition after 7 days, read-out: efficacy (infertile eggs)
Procedure: Boophilus microplus—Dip Test
Test animal: cattle ticks (Boophilus microplus) strane Parhurst, SP-resistant
Solvent: dimethyl sulfoxide
To produce a suitable preparation of active compound, 10 mg of active compound are dissolved in 0.5 ml solvent, and the concentrate is diluted with water to the desired concentration.
This compound solution is pipetted into tubes. 8-10 engorged, adult, female cattle ticks (Boophilus microplus) are placed in perforated tubes. These tubes are immersed in the aqueous compound solution until the ticks are completely moistened. After the liquid has drained off, the ticks are transferred to a filter paper in a plastic tray and stored in a climate chamber.
After 7 days egg deposition of fertile eggs is monitored. Eggs where fertility is not visible are stored in a climate chamber till hatching after about 42 days. An efficacy of 100% means all eggs are infertile; 0% means all eggs are fertile.

Boophilus microplus = Boophilus microplus injection test; conditions: Rhipicephalus microplus, 168 h; 20 μg/animal injected into the abdomen; adult engorged female ticks; egg deposition after 7 days; read-out: efficacy (infertile eggs)
Method in brief: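 Five engorged adult female ticks received a 1 μl abdominal injection of compound in DMSO. They were then held in a climate chamber, with egg deposition checked after 7 days. Unclear eggs were kept until hatching at about 42 days, and efficacy was scored as the percentage of infertile eggs.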

Nilaparvata lugens = Nilaparvata lugens spray test; conditions: 336 h, after 14 days, rice plants
Procedure: Nilaparvata lugens—Spray Test
To produce a suitable preparation of active compound, 1 part by weight of active compound is mixed with the stated amount of solvents and is diluted with water, containing an emulsifier concentration of 1000 ppm, to the desired concentration. Further test concentrations are prepared by dilution with emulsifier containing water.
Rice plants (Oryza sativa) are sprayed with a preparation of the active ingredient of the desired concentration and the plants are infested with the brown planthopper (Nilaparvata lugens).
After 14 days mortality in % is determined. 100% means all planthoppers have been killed and 0% means none of the planthoppers have been killed.

Rhipicephalus sanguineus = Rhipicephalus sanguineus in-vitro contact test, adult brown dog ticks; conditions: 5 μg/cm^2 (=500 g/ha), after 48 hours, read-out: efficacy (ticks dead or moribund)
Procedure: Rhipicephalus Sanguineus—In-Vitro Contact Tests with Adult Brown Doe Ticks
9 mg compound is solved in 1 ml acetone and diluted with acetone to the desired concentration. 250 μl of the test solution is filled in 25 ml glass test tubes and homogeneously distributed on the inner walls by rotation and tilting on a shaking device (2 h at 30 rpm). With a compound concentration of 900 ppm, an inner surface of 44.7 cm^2 and a homogeneous distribution, a dose of 5 μg/cm^2 is achieved.
After the solvent has evaporated, each test tube is filled with 5-10 adult brown dog ticks (Rhipicephalus sanguineus), closed with a perforated lid and incubated in a lying position at room temperature and relative humidity. After 48 hours efficacy is determined. The ticks are patted on the ground of the tubes and are incubated on a heating plate at 45-50° C. for at most 5 minutes. Immotile or uncoordinated moving ticks, which are not able to escape the heat by climbing upwards, are marked as dead or moribund.
An efficacy of 100% means all ticks are dead or moribund; 0% means no ticks are dead or moribund.

Nezara viridula = Nezara viridula spray test; conditions: 96 h, after 4 days, larvae on barley plants
Method in brief: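 Barley plants infested with Nezara viridula larvae were sprayed with compound diluted in water containing 1000 ppm emulsifier. Percent mortality was scored 4 days later, where 100% means all bugs killed and 0% none.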

Ctenocephalides felis [3] = experiment: Ctenocephalides felis in-vitro contact test, adult cat flea; conditions: 5 μg/cm^2 (=500 g/ha), after 48 hours, adult cat fleas, read-out: efficacy (fleas dead or moribund)
Procedure: Ctenocephalides Felis—In-Vitro Contact Tests Adult Cat Flea 9 mg compound is solved in 1 ml acetone and diluted with acetone to the desired concentration. 250 μl of the test solution is filled in 25 ml glass test tubes and homogeneously distributed on the inner walls by rotation and tilting on a shaking device (2 h at 30 rpm). With a compound concentration of 900 ppm, an inner surface of 44.7 cm^2 and a homogeneous distribution, a dose of 5 μg/cm^2 is achieved. After the solvent has evaporated, each test tube is filled with 5-10 adult cat fleas (Ctenocephalides felis), closed with a perforated lid and incubated in a lying position at room temperature and relative humidity. After 48 hours efficacy is determined. The fleas are patted on the ground of the tubes and are incubated on a heating plate at 45-50° C. for at most 5 minutes. Immotile or uncoordinated moving fleas, which are not able to escape the heat by climbing upwards, are marked as dead or moribund. […] An efficacy of 100% means all fleas are dead or moribund; 0% means no fleas are dead or moribund.

Diabrotica balteata = Diabrotica balteata spray test; conditions: Diabrotica balteata, in Triticum aestivum, 168 h, after 7 days, larvae on wheat seeds, read-out: efficacy (seedlings grown up); for pest or weed control at 80 µg/disc, 250 g/ha: 80 μg/well (=250 g/ha); for pest or weed control at 160 µg/disc, 500 g/ha: 160 μg/well (=500 g/ha)
Method in brief: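 Germinated wheat seeds (5 per well, 1 day on agar) sprayed with compound diluted in water containing 1000 ppm emulsifier, then infested with 10–20 D. balteata larvae. Efficacy scored after 7 days: 100% = seedlings like untreated uninfested control, 0% = no seedlings grown.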

Spodoptera frugiperda = Spodoptera frugiperda spray test; conditions: 168 h, after 7 days, larvae on maize leaf sections
Method in brief: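 Compound mixed with solvent, diluted with 1000 ppm emulsifier water to test concentrations; sprayed on maize leaf pieces; dried; larvae added; mortality (%) scored at 7 d.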

Myzus persicae [4] = experiment: Myzus persicae spray test; conditions: foliar, 120 h, after 5 days, Chinese cabbage leaf disks
Method in brief: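 Chinese cabbage leaf disks infested with all aphid instars were sprayed with compound diluted in water containing emulsifier (1000 ppm). Mortality (%) was scored after 5 days, 100% meaning all aphids killed.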

Myzus persicae [5] = experiment: Myzus persicae oral test; conditions: 120 h, 4 ppm, after 5 days
Method in brief: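 Aphid mortality (%) was recorded 5 days after a mixed Myzus persicae population began sucking, through parafilm, on compound solutions (acetone stock diluted with water) combined with sugar-supplemented IPL41 medium.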

[6] = test system: Aedes aegypti strain MONHEIM; experiment: Aedes aegypti test (AEDSAE surface treatment & contact assay); conditions: 24 hours after contact, read-out: efficacy (mortality)
Method in brief: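 Compound dissolved in acetone (2 mg/ml) with 2000 ppm rapeseed oil methyl ester, applied to glazed tile and dried; adult strain MONHEIM mosquitoes exposed 30 minutes. Percent mortality scored 24 hours after contact.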

[7] = test system: Musca domestica strain WHO-N; experiment: Musca domestica test (MUSCDO surface treatment & contact assay); conditions: 24 hours after contact, read-out: efficacy (mortality)
Procedure: Musca domestica test (MUSCDO surface treatment & contact assay)
(§1) Solvent: Aceton+2000 ppm rapeseed oil methyl ester (RME)
In order to produce a sufficient, active ingredient containing solution it is necessary to solve the test compound in the solvent-mix (acetone at 2 mg/ml/RME 2000 ppm). This solution is pipetted onto a glazed tile and after evaporation of the acetone, adult flies of the species Musca domestica strain WHO-N are placed onto the dried surface. The exposure time is 30 minutes.
Mortality in percent (%) is determined 24 hours after contact of the insects to the treated surface. 100% morality means that all tested insects are dead, whereas 0% means that no insect died.

[8] = test system: Anopheles funestus strain FUMOZ-R; experiment: Anopheles funestus test (ANPHFU surface treatment & contact assay); conditions: 24 hours after contact, read-out: efficacy (mortality)
Procedure: Anopheles funestus Test (ANPHFU Surface Treatment & Contact Assay)
as §1
In order to produce a sufficient, active ingredient containing solution it is necessary to solve the test compound in the solvent-mix (acetone at 2 mg/ml/RME 2000 ppm). This solution is pipetted onto a glazed tile and after evaporation of the acetone, adult mosquitoes of the species Anopheles funestus strain FUMOZ-R (Hunt et al., Med. Vet. Entomol. 2005 September; 19(3): 271-275) are placed onto the dried surface. The exposure time is 30 minutes.
Mortality in percent (%) is determined 24 hours after contact of the insects to the treated surface. 100% mortality means that all tested insects are dead, whereas 0% means that no insect died.

[9] = test system: Culex quinquefasciatus strain P00; experiment: Culex quinquefasciatus test (CULXFA surface treatment & contact assay); conditions: 24 hours after contact, read-out: efficacy (mortality)
Method in brief: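 Compound dissolved in acetone (2 mg/ml) with 2000 ppm rapeseed oil methyl ester, applied to glazed tile and dried; adult C. quinquefasciatus strain P00 exposed to surface for 30 minutes. Mortality (%) scored 24 hours after contact.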

[10] = surface concentration 4 mg/m^2, exposure 30 minutes
[11] = surface concentration 20 mg/m^2, exposure 30 minutes

C[C@H](NC(=O)c1cc(Cl)cc(C(F)(F)F)c1)c1ncnn1-c1ncc(OC(F)F)cn1 [Example I-012]
95%: pest or weed control at 100 ppm [2]
100%: mortality at 100 ppm (Ctenocephalides felis [1]) | pest or weed control at 0.02 mg (Boophilus microplus) | mortality at 500 g/ha (Nilaparvata lugens) | pest or weed control at 5 µg/cm2 (Rhipicephalus sanguineus) | mortality at 100 g/ha (Nezara viridula) | mortality at 500 g/ha (Nezara viridula) | pest or weed control at 5 µg/cm2 (Ctenocephalides felis [3]) | pest or weed control at 80 µg/disc, 250 g/ha (Diabrotica balteata) | pest or weed control at 160 µg/disc, 500 g/ha (Diabrotica balteata) | mortality at 100 g/ha (Spodoptera frugiperda) | mortality at 500 g/ha (Spodoptera frugiperda)

C[C@H](NC(=O)c1cc(Cl)cc(C(F)(F)F)c1)c1ncnn1-c1ccc(N(S(C)(=O)=O)S(C)(=O)=O)cn1 [Example I-037]
90%: mortality at 100 g/ha (Myzus persicae [4]) | mortality at 500 g/ha (Myzus persicae [4])
100%: mortality at 100 ppm (Ctenocephalides felis [1]) | pest or weed control at 100 ppm [2] | pest or weed control at 0.02 mg (Boophilus microplus) | mortality at 500 g/ha (Nilaparvata lugens) | mortality at 100 g/ha (Nezara viridula) | mortality at 500 g/ha (Nezara viridula) | pest or weed control at 5 µg/cm2 (Ctenocephalides felis [3]) | pest or weed control at 80 µg/disc, 250 g/ha (Diabrotica balteata) | pest or weed control at 160 µg/disc, 500 g/ha (Diabrotica balteata) | mortality at 100 g/ha (Spodoptera frugiperda)

C[C@H](NC(=O)c1cncc(C(F)(F)F)c1)c1ncnn1-c1ccc(C#N)cn1 [Example I-067]
90%: mortality at 100 g/ha (Myzus persicae [4]) | mortality at 500 g/ha (Myzus persicae [4]) | mortality at 500 g/ha (Nilaparvata lugens)
100%: mortality at 100 ppm (Ctenocephalides felis [1]) | pest or weed control at 0.02 mg (Boophilus microplus) | pest or weed control at 5 µg/cm2 (Rhipicephalus sanguineus) | mortality at 4 ppm (Myzus persicae [5]) | mortality at 100 g/ha (Nezara viridula) | mortality at 500 g/ha (Nezara viridula) | pest or weed control at 5 µg/cm2 (Ctenocephalides felis [3]) | pest or weed control at 80 µg/disc, 250 g/ha (Diabrotica balteata) | pest or weed control at 160 µg/disc, 500 g/ha (Diabrotica balteata) | mortality at 100 g/ha (Spodoptera frugiperda) | mortality at 500 g/ha (Spodoptera frugiperda)

C[C@H](NC(=O)c1cc(Cl)cc(C(F)(F)F)c1)c1ncnn1-c1ccc(-n2cccn2)cn1 [Example I-074]
100%: pest or weed control at 0.02 mg (Boophilus microplus) | pest or weed control at 80 µg/disc, 250 g/ha (Diabrotica balteata) | pest or weed control at 160 µg/disc, 500 g/ha (Diabrotica balteata) | mortality at 100 g/ha (Spodoptera frugiperda) | mortality at 500 g/ha (Spodoptera frugiperda)
80%: mortality at 100 ppm (Ctenocephalides felis [1]) | pest or weed control at 5 µg/cm2 (Rhipicephalus sanguineus) | pest or weed control at 5 µg/cm2 (Ctenocephalides felis [3])

C[C@H](NC(=O)c1cc(Cl)cc(C(F)(F)F)c1)c1ncnn1-c1ncc(F)cc1F [Example I-014]
85 to 100%: mortality at 4 mg/m2 [8, 10]
100%: mortality at 100 ppm (Ctenocephalides felis [1]) | pest or weed control at 0.02 mg (Boophilus microplus) | mortality at 500 g/ha (Nilaparvata lugens) | mortality at 4 ppm (Myzus persicae [5]) | mortality at 100 g/ha (Nezara viridula) | mortality at 500 g/ha (Nezara viridula) | pest or weed control at 80 µg/disc, 250 g/ha (Diabrotica balteata) | pest or weed control at 160 µg/disc, 500 g/ha (Diabrotica balteata) | mortality at 100 g/ha (Spodoptera frugiperda) | mortality at 500 g/ha (Spodoptera frugiperda)
90 to 100%: mortality at 4 mg/m2 [6, 10] | mortality at 20 mg/m2 [6, 11] | mortality at 4 mg/m2 [7, 10] | mortality at 20 mg/m2 [7, 11] | mortality at 20 mg/m2 [8, 11] | mortality at 4 mg/m2 [9, 10] | mortality at 20 mg/m2 [9, 11]
90%: mortality at 100 g/ha (Myzus persicae [4]) | mortality at 500 g/ha (Myzus persicae [4])
